Here are results for 20 compounds from patent US20240317735A1, “HYDROISOQUINOLINE OR HYDRONAPHTHYRIDINE COMPOUNDS FOR THE TREATMENT OF AUTOIMMUNE DISEASE” (Hoffmann-La Roche Inc., priority 2020, published 2024).

Data set [1] is described as follows: Human microsome stability assay. The settings on record: 1 μM test compound, 0.5 mg/mL liver microsomal protein, 37° C., pH 7.4. It is filed as in vitro ADME. An outline of the steps: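 1 μM compound with 0.5 mg/mL human liver microsomes in 100 mM potassium phosphate pH 7.4, 37° C, started with NADPH-regenerating system after 10 min preincubation. Sampled at 0, 3, 6, 9, 15, 30 min, quenched in acetonitrile; parent remaining by LC-MS/MS, with no-NADPH controls.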
For orientation: Liver microsomes are vesicles of endoplasmic reticulum, rich in cytochrome P450 enzymes.

The target of data set [2] is T1, TLR9 (Homo sapiens, UniProt Q9NR96).
T1 sequence (Q9NR96 26-1032): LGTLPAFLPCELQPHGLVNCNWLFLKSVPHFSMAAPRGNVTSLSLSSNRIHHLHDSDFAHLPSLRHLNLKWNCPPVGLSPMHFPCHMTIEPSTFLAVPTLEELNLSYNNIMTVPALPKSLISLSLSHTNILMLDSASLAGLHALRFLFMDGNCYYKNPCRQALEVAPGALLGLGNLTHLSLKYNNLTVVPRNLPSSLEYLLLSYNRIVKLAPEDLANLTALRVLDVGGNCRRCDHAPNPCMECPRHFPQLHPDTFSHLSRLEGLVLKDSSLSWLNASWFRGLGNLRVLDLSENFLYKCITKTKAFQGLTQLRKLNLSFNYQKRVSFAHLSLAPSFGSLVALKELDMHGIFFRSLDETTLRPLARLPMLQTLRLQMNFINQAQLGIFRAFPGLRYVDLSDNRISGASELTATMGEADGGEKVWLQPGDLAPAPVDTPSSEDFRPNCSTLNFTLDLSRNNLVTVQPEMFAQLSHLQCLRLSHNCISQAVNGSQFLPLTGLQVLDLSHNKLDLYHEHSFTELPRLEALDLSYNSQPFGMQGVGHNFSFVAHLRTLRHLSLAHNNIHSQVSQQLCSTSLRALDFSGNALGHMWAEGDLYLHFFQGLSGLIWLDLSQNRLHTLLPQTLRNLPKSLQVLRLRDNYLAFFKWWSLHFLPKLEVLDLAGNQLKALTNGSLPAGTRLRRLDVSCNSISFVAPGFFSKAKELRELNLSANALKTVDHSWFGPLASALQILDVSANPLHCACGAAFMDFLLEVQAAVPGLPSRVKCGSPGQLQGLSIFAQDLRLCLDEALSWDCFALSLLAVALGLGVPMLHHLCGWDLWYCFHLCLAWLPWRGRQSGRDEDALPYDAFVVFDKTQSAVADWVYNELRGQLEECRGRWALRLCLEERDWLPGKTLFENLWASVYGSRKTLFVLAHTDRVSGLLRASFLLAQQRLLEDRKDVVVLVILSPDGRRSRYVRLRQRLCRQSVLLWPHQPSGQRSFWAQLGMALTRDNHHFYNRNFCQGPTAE
The data set is described as follows: HEK293-Blue-hTLR-9 cells assay (SEAP reporter, ODN2006 stimulation). It is filed as cell-based. On the set-up: host or cells: HEK293 (HEK-Blue hTLR9). The settings on record: HEK293-Blue-hTLR9 cells, ODN2006, 20 hrs; read-out: HEK/hTLR9 IC50. An outline of the steps: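 Antagonist format: cells in DMEM/10% FBS exposed to serially diluted compound (1% DMSO) plus ODN2006 stimulation for 20 h at 37°C. Supernatant SEAP measured with QUANTI-Blue substrate, 2 h at 37°C, absorbance 620–655 nm.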

On to `Cc1cc(N2Cc3ccc(N4C[C@@H](N)[C@H](O)C4)cc3[C@@H](C)C2)c2cnn(C)c2n1` [Example 47, trans-4-amino-1-[(4R)-2-(1,6-dimethylpyrazolo[3,4-b]pyridin-4-yl)-4-methyl-3,4-dihydro-1H-isoquinolin-6-yl]pyrrolidin-3-ol], for which, in data set [1], the “Clearance of Human microsome” value amounted to 6.2 mL/min/kg. Further, the IC50 in data set [2] is 0.23 µM.

On to `Cc1cc(N2Cc3ccc(N4CC5(CNCCO5)C4)cc3[C@@H](C)C2)c2cnn(C)c2n1` [Example 48, 2-[(4R)-2-(1,6-dimethylpyrazolo[3,4-b]pyridin-4-yl)-4-methyl-3,4-dihydro-1H-isoquinolin-6-yl]-5-oxa-2,8-diazaspiro[3.5]nonane], for which the “Clearance of Human microsome” value in data set [1] came out at 7.2 mL/min/kg. Also, in data set [2], the IC50 was 0.229 µM.

For `C[C@H]1CN(c2ccnc3c2cnn3C)Cc2ccc(N3CCN[C@@H](CO)C3)cc21` [Example 50, [(2R)-4-[(4R)-4-methyl-2-(1-methylpyrazolo[3,4-b]pyridin-4-yl)-3,4-dihydro-1H-isoquinolin-6-yl]piperazin-2-yl]methanol], the “Clearance of Human microsome” value in data set [1] amounted to 6.2 mL/min/kg. Also, the IC50 in data set [2] is 0.376 µM.

For `C[C@H]1CN(c2ccnc3c2cnn3C)Cc2ccc(N3CCN[C@H](CO)C3)cc21` [Example 51, [(2S)-4-[(4R)-4-methyl-2-(1-methylpyrazolo[3,4-b]pyridin-4-yl)-3,4-dihydro-1H-isoquinolin-6-yl]piperazin-2-yl]methanol], in data set [1], the “Clearance of Human microsome” value came out at 7.7 mL/min/kg. For the same compound, the IC50 in data set [2] worked out at 0.365 µM.

Consider `C[C@H]1CN(c2ccnc3c2cnn3C)Cc2ccc(N3CC4(CCNC4)CC3=O)cc21` (stereo partly drawn) [Example 52, 2-[(4R)-4-methyl-2-(1-methylpyrazolo[3,4-b]pyridin-4-yl)-3,4-dihydro-1H-isoquinolin-6-yl]-2,7-diazaspiro[4.4]nonan-3-one], for which the “Clearance of Human microsome” value in data set [1] is given as 6.2 mL/min/kg. For the same compound, the IC50 in data set [2] was found to be 0.117 µM.

Take `Cc1cc(N2Cc3ccc(N4CCC(N)CC4)nc3[C@@H](C)C2)c2cnn(C)c2n1` [Example 58, 1-[(8S)-6-(1,6-dimethylpyrazolo[3,4-b]pyridin-4-yl)-8-methyl-7,8-dihydro-5H-1,6-naphthyridin-2-yl]piperidin-4-amine]: the “Clearance of Human microsome” value in data set [1] turned out to be 9.0 mL/min/kg. Also, the IC50 in data set [2] came out at 0.199 µM.

In the case of `Cc1cc(N2Cc3ccc(N4CCC(C)(N)CC4)nc3[C@@H](C)C2)c2cnn(C)c2n1` [Example 59, 4-methyl-1-[(8S)-6-(1,6-dimethylpyrazolo[3,4-b]pyridin-4-yl)-8-methyl-7,8-dihydro-5H-1,6-naphthyridin-2-yl]piperidin-4-amine], the “Clearance of Human microsome” value in data set [1] was 9.4 mL/min/kg. The IC50 in data set [2] worked out at 0.121 µM.

For `C[C@H]1CN(c2ccnc3c2cnn3C)Cc2ccc(N3CCNCC3)nc21` [Example 62, (8S)-8-methyl-6-(1-methylpyrazolo[3,4-b]pyridin-4-yl)-2-piperazin-1-yl-7,8-dihydro-5H-1,6-naphthyridine], in data set [1], the “Clearance of Human microsome” value is recorded as 6.8 mL/min/kg. Moreover, the IC50 in data set [2] worked out at 0.264 µM.

With `CO[C@@H]1CN(c2ccc3c(n2)[C@@H](C)CN(c2cc(C)nc4c2cnn4C)C3)C[C@H]1N` [Example 63, (3R,4R)-4-methoxy-1-[(8S)-6-(1,6-dimethylpyrazolo[3,4-b]pyridin-4-yl)-8-methyl-7,8-dihydro-5H-1,6-naphthyridin-2-yl]pyrrolidin-3-amine], in data set [1], the “Clearance of Human microsome” value was found to be 6.2 mL/min/kg. The IC50 in data set [2] came to 0.236 µM.

As to `Cc1cc(N2Cc3ccc(OC4CCNCC4)nc3[C@@H](C)C2)c2cnn(C)c2n1` [Example 64, (8S)-6-(1,6-dimethylpyrazolo[3,4-b]pyridin-4-yl)-8-methyl-2-(4-piperidyloxy)-7,8-dihydro-5H-1,6-naphthyridine], the “Clearance of Human microsome” value in data set [1] was 7.0 mL/min/kg. In addition, the IC50 in data set [2] was 0.249 µM.

For `Cc1cc(N2Cc3ccc(N4CCNCC4)nc3[C@@H](C)C2)c2cnn(C)c2n1` [Example 66, (8S)-6-(1,6-dimethylpyrazolo[3,4-b]pyridin-4-yl)-8-methyl-2-piperazin-1-yl-7,8-dihydro-5H-1,6-naphthyridine], the “Clearance of Human microsome” value in data set [1] is on record as 9.8 mL/min/kg. Also, in data set [2], the IC50 came to 0.132 µM.

With `Cc1cc(N2Cc3ccc(N4CCN(C)CC4)nc3[C@@H](C)C2)c2cnn(C)c2n1` [Example 67, (8S)-6-(1,6-dimethylpyrazolo[3,4-b]pyridin-4-yl)-8-methyl-2-(4-methylpiperazin-1-yl)-7,8-dihydro-5H-1,6-naphthyridine], the “Clearance of Human microsome” value in data set [1] turned out to be 10.5 mL/min/kg. Also, the IC50 in data set [2] was determined as 0.282 µM.

In the case of `Cc1cc(N2Cc3ccc(N4CC5(CNCCO5)C4)nc3[C@@H](C)C2)c2cnn(C)c2n1` [Example 68, 2-[(8S)-6-(1,6-dimethylpyrazolo[3,4-b]pyridin-4-yl)-8-methyl-7,8-dihydro-5H-1,6-naphthyridin-2-yl]-5-oxa-2,8-diazaspiro[3.5]nonane], the “Clearance of Human microsome” value in data set [1] is given as 9.8 mL/min/kg. Further, the IC50 in data set [2] amounted to 0.332 µM.

As to `Cc1cc(N2Cc3ccc(N4C[C@@H](F)[C@@H](N)C4)nc3[C@@H](C)C2)c2cnn(C)c2n1` [Example 69, (3S,4R)-4-fluoro-1-[(8S)-6-(1,6-dimethylpyrazolo[3,4-b]pyridin-4-yl)-8-methyl-7,8-dihydro-5H-1,6-naphthyridin-2-yl]pyrrolidin-3-amine], the “Clearance of Human microsome” value in data set [1] worked out at 8.1 mL/min/kg. Moreover, in data set [2], the IC50 came out at 0.488 µM.

On to `Cc1cc(N2Cc3ccc(N4CCOC5(CNC5)C4)nc3[C@@H](C)C2)c2cnn(C)c2n1` [Example 70, 8-[(8S)-6-(1,6-dimethylpyrazolo[3,4-b]pyridin-4-yl)-8-methyl-7,8-dihydro-5H-1,6-naphthyridin-2-yl]-5-oxa-2,8-diazaspiro[3.5]nonane], for which, in data set [1], the “Clearance of Human microsome” value is listed as 8.1 mL/min/kg. The IC50 in data set [2] came to 0.3 µM.

With `Cc1cc(N2Cc3ccc(N4CCNCC4)nc3[C@H](C)C2)c2cnn(C)c2n1` [Example 72, (8R)-6-(1,6-dimethylpyrazolo[3,4-b]pyridin-4-yl)-8-methyl-2-piperazin-1-yl-7,8-dihydro-5H-1,6-naphthyridine], the “Clearance of Human microsome” value in data set [1] is on record as 7.3 mL/min/kg. Further, the IC50 in data set [2] amounted to 0.113 µM.

Take `CO[C@H]1CN(c2cc3c(cn2)CN(c2cc(C)nc4c2cnn4C)C[C@@H]3C)CC[C@@H]1N` [Example 73, (3S,4S)-3-methoxy-1-[(5R)-7-(1,6-dimethylpyrazolo[3,4-b]pyridin-4-yl)-5-methyl-6,8-dihydro-5H-2,7-naphthyridin-3-yl]piperidin-4-amine]: the “Clearance of Human microsome” value in data set [1] came to 6.3 mL/min/kg. Further, the IC50 in data set [2] came out at 0.115 µM.

Turning to `Cc1cc(N2Cc3cnc(N4CCNCC4)cc3[C@@H](C)C2)c2cnn(C)c2n1` [Example 74, (4R)-2-(1,6-dimethylpyrazolo[3,4-b]pyridin-4-yl)-4-methyl-6-piperazin-1-yl-3,4-dihydro-1H-2,7-naphthyridine], the “Clearance of Human microsome” value in data set [1] turned out to be 9.2 mL/min/kg. The IC50 in data set [2] is 0.165 µM.

`Cc1cc(N2Cc3cnc(O[C@@H]4C[C@H]5CNCCN5C4)cc3[C@@H](C)C2)c2cnn(C)c2n1` [Example 76, (4R)-2-(1,6-dimethylpyrazolo[3,4-b]pyridin-4-yl)-4-methyl-6-[[(7R,8aS)-1,2,3,4,6,7,8,8a-octahydropyrrolo[1,2-a]pyrazin-7-yl]oxy]-3,4-dihydro-1H-2,7-naphthyridine]: the “Clearance of Human microsome” value in data set [1] is on record as 6.2 mL/min/kg. For the same compound, in data set [2], the IC50 came to 0.144 µM.

Consider `Cc1cc(N2Cc3cnc(OCCN4CCNCC4)cc3[C@@H](C)C2)c2cnn(C)c2n1` [Example 77, (4R)-2-(1,6-dimethylpyrazolo[3,4-b]pyridin-4-yl)-4-methyl-6-(2-piperazin-1-ylethoxy)-3,4-dihydro-1H-2,7-naphthyridine], for which, in data set [1], the “Clearance of Human microsome” value is given as 6.2 mL/min/kg. Besides, the IC50 in data set [2] worked out at 0.144 µM.
